Data on 17 compounds can be found in US20160317676A1, “METHODS AND COMPOSITIONS FOR DELIVERY OF NUCLEIC ACIDS” (Tekmira Pharmaceuticals Corporation, priority 2009, published 2016).

Data set [1] in a line: Determination of pKa of formulated lipids with the fluorescent probe TNS. Conditions: for Lipid B pKa (±0.2): Lipid B by itself, formulation 40:10:40:10.
Protocol: The pKa values for the different ionizable cationic lipids were determined essentially as described (Eastman et al., 1992 Biochemistry 31:4262-4268, which is incorporated by reference in its entirety) using the fluorescent probe 2-(p-toluidino)-6-naphthalenesulfonic acid (TNS), which is non-fluorescent in water but becomes appreciably fluorescent when bound to membranes. Vesicles composed of cationic lipid/DSPC/CH/PEG-c-DOMG (40:10:40:10 mole ratio) were diluted to 0.1 mM in buffers (130 mM NaCl, 10 mM CH3COONH4, 10 mM MES, 10 mM HEPES) of various pH values ranging from 2 to 11. An aliquot of the TNS aqueous solution (1 μM final) was added to the diluted vesicles and after a 30 second equilibration period the fluorescent of the TNS-containing solution was measured at excitation and emission wavelengths of 321 nm and 445 nm, respectively. The pKa of the cationic lipid-containing vesicles was determined by plotting the measured fluorescence against the pH of the solutions and fitting the data to a Sigmodial curve using the commercial graphing program IgorPro.
The next data set concerns Factor VII. Kind of data set: In vivo mouse Factor VII silencing model (FVII siRNA in lipid formulations, serum FVII chromogenic assay). Details: species or system C57Bl/6 mice. Conditions: for % residual FVII: 40% cationic lipid/10% DSPC/40% cholesterol/10% PEG-DMG, FIG. 4; for Lipid B ED50: Lipid B by itself; for ED50: dose giving 50% reduction in plasma FVII vs control animals, i.v. tail vein, 24 h, FVII siRNA formulation. How it is done: C57BL/6 mice (Charles River Labs, MA) received either saline or siRNA in desired formulations via tail vein injection at a volume of 0.01 mL/g. At various time points post-administration, animals were anesthesized by isofluorane inhalation and blood was collected into serum separator tubes by retro orbital bleed. Serum levels of Factor VII protein were determined in samples using a chromogenic assay (Coaset Factor VII, DiaPharma Group, OH or Biophen FVII, Aniara Corporation, OH) according to manufacturer protocols. A standard curve was generated using serum collected from saline treated animals. In experiments where liver mRNA levels were assessed, at various time points post-administration, animals were sacrificed and livers were harvested and snap frozen in liquid nitrogen. Frozen liver tissue was ground into powder. Tissue lysates were prepared and liver mRNA levels of Factor VII and apoB were determined using a branched DNA assay (QuantiGene Assay, Panomics, CA).
Factor VII (FVII), a prominent protein in the coagulation cascade, is synthesized in the liver (hepatocytes) and secreted into the plasma. FVII levels in plasma can be determined by a simple, plate-based colorimetric assay. As such, FVII represents a convenient model for determining sirna-mediated downregulation of hepatocyte-derived proteins, as well as monitoring plasma concentrations and tissue distribution of the nucleic acid lipid particles and siRNA.
C57BL/6 mice (Charles River Labs, MA) received either saline or formulated siRNA via tail vein injection. At various time points after administration, serum samples were collected by retroorbital bleed. Serum levels of Factor VII protein were determined in samples using a chromogenic assay (Biophen FVII, Aniara Corporation, OH). To determine liver mRNA levels of Factor VII, animals were sacrificed and livers were harvested and snap frozen in liquid nitrogen. Tissue lysates were prepared from the frozen tissues and liver mRNA levels of Factor VII were quantified using a branched DNA assay (QuantiGene Assay, Panomics, CA).
FVII activity was evaluated in FVII siRNA-treated animals at 48 hours after intravenous (bolus) injection in C57BL/6 mice. FVII was measured using a commercially available kit for determining protein levels in serum or tissue, following the manufacturer's instructions at a microplate scale. FVII reduction was determined against untreated control mice, and the results were expressed as % Residual FVII. Two dose levels (0.05 and 0.005 mg/kg FVII siRNA) were used in the screen of each novel liposome composition.
Test formulations were initially assessed for their FVII knockdown in female 7-9 week old, 15-25 g, female C57B1/6 mice at 0.1, 0.3, 1.0 and 5.0 mg/kg with 3 mice per treatment group. All studies included animals receiving either phosphate-buffered saline (PBS, Control group) or a benchmark formulation. Formulations were diluted to the appropriate concentration in PBS immediately prior to testing. Mice were weighed and the appropriate dosing volumes calculated (10 μl/g body weight). Test and benchmark formulations as well as PBS (for Control animals) were administered intravenously via the lateral tail vein. Animals were anesthetised 24 h later with an intraperitoneal injection of Ketamine/Xylazine and 500-700 μl of blood was collected by cardiac puncture into serum separator tubes (BD Microtainer). Blood was centrifuged at 2,000×g for 10 min at 15° C. and serum was collected and stored at −70° C. until analysis. Serum samples were thawed at 37° C. for 30 min, diluted in PBS and aliquoted into 96-well assay plates. Factor VII levels were assessed using a chromogenic assay (Biophen FVII kit, Hyphen BioMed) according to manufacturer's instructions and absorbance measured in microplate reader equipped with a 405 nm wavelength filter. […]

The mark [2] stands for this setting: TNS assay, vesicles cationic lipid/DSPC/CH/PEG-c-DOMG 40:10:40:10.
Where [3] appears, read: probe 2-(p-toluidino)-6-naphthalenesulfonic acid (TNS), 1 µM final, pKa, TNS assay, vesicles cationic lipid/DSPC/CH/PEG-c-DOMG 40:10:40:10.

With `CCCCC/C=C\C/C=C\CCCCCCCCC(CCCCCCCC/C=C\C/C=C\CCCCC)OC(=O)CCCCN(C)C` [DLin-M-C4-DMA], the “Lipid B pKa (±0.2)” value in data set [1] is recorded as 6.93. The pKa (as a rule, the negative logarithm of the acid dissociation constant) in data set [1] (setting [2]) is 6.93. Besides, the “% residual FVII” value with Factor VII (0.05 mg/kg siRNA) and in the data set with Factor VII (0.10 mg/kg siRNA) was “about 90%” each time. Further, the “Lipid B ED50” value in the data set on Factor VII (formulation 40:10:40:10) stood at 0.150 mg/kg. In addition, in the data set on Factor VII, the ED50 (usually the dose that gives a 50% effect, or the effect in half of the subjects) came to 0.15 mg/kg.

As to `CCCCC/C=C\C/C=C\CCCCCCCCC1(CCCCCCCC/C=C\C/C=C\CCCCC)OCC(CN(C)C)CO1` [DLin-K6S-C1-DMA], the pKa in data set [1] (setting [3]) came out at 5.97. The 50% effective dose (ED50) in the data set with Factor VII was 0.10 mg/kg.

Compound `CC/C=C\C/C=C\C/C=C\CCCCCCCCC1(CCCCCCCC/C=C\C/C=C\C/C=C\CC)OCC(CCN(C)C)O1` (centres unmarked) [DLen-K5-C2-DMA] returned a pKa in data set [1] (setting [3]) of 6.59. The compound also showed a 50% effective dose (ED50) with Factor VII of 0.05 mg/kg.

For `CCCCC/C=C\C/C=C\CCCCCCCCC1(CCCCCCCC/C=C\C/C=C\CCCCC)OCC(CCN(C)C)O1` (centres unmarked) [DLin-K5-C2-DMA], the pKa in data set [1] (probe 2-(p-toluidino)-6-naphthalenesulfonic acid (TNS), 1 µM final) is 6.68. Also, the ED50 in the data set on Factor VII worked out at 0.10 mg/kg.

Regarding `CCCCCCCCCCC(O)CN(CCN1CCN(CCN(CC(O)CCCCCCCCCC)CC(O)CCCCCCCCCC)CC1)CCN(CC(O)CCCCCCCCCC)CC(O)CCCCCCCCCC` (centres unmarked) [Compound C12-200, reference compound], the “Lipid B pKa (±0.2)” value in data set [1] is 6.47. For the same compound, the “Lipid B ED50” value in the data set with Factor VII (formulation 40:10:40:10) was 0.030 mg/kg.

`CCCCC/C=C\C/C=C\CCCCCCCCC1(CCCCCCCC/C=C\C/C=C\CCCCC)OCC(CN(C)C)O1` (centres unmarked) [DLin-K-DMA (CDRD)]: the pKa in data set [1] (setting [2]) was 5.91. For the same compound, in the data set on Factor VII, the ED50 was determined as 0.40 mg/kg.

With `CCCCC/C=C\C/C=C\CCCCCCCC1OC2(CCN(C)CC2)OC1CCCCCCC/C=C\C/C=C\CCCCC` (centres unmarked) [ALNY-156], the pKa in data set [1] (setting [2]) stood at 6.08. The ED50 in the data set on Factor VII was under 0.1 mg/kg.

In data set [1] (setting [3]), `CCCCC/C=C\C/C=C\CCCCCCCCC(CCCCCCC/C=C\C/C=C\CCCCC)OC(=O)CCC[N+](C)(C)C` (centres unmarked) [DLin-M-C3-TMA] had a pKa of over 1. For the same compound, the “Lipid B ED50” value with Factor VII (formulation 40:10:40:10) is given as over 1.00 mg/kg.

In data set [1] (setting [3]), `CCCCC/C=C\C/C=C\CCCCCCCCC(CCCCCCCC/C=C\C/C=C\CCCCC)CN(C)CCNC(=N)N` [ALNY-139] displayed a pKa of 10. The compound further displayed a 50% effective dose (ED50) in the data set with Factor VII of 5.00 mg/kg.

In turn, `CCCCC/C=C\C/C=C\C/C=C\CCCCCC(CCCCC/C=C\C/C=C\C/C=C\CCCCC)OC(=O)CCCCN(C)C` [DLen(γ)-M-C4-DMA] registered a pKa in data set [1] (setting [3]) of 6.75. Further, the 50% effective dose (ED50) in the data set on Factor VII was 0.50 mg/kg.

In turn, `CCCCC/C=C\C/C=C\C/C=C\CCCCCC(CCCCC/C=C\C/C=C\C/C=C\CCCCC)OC(=O)CCCN(C)C` [DLen(γ)-M-C3-DMA] had a pKa in data set [1] (setting [3]) of 6.3. In addition, the median effective dose (ED50) with Factor VII turned out to be 0.08 mg/kg.

Compound `CCCCC/C=C\C/C=C\CCCCCCCCC(CCCCCCCC/C=C\C/C=C\CCCCC)OC(=O)CCCNCC` [DLin-M-C3-EA] yielded a pKa in data set [1] (setting [2]) of 7.62. In the data set with Factor VII, this compound displayed a median effective dose (ED50) of 5.00 mg/kg.

`CCCCC/C=C\C/C=C\CCCCCCCCOC(=O)C(CCN(C)C)C(=O)OCCCCCCCC/C=C\C/C=C\CCCCC` [DLin-MAL-C2-DMA]: in data set [1] (setting [3]), the pKa was 6.66. The compound further returned an ED50 with Factor VII of 1.50 mg/kg.

As to `CCCCC/C=C\C/C=C\CCCCCCCCC(CCCCCCCC/C=C\C/C=C\CCCCC)OC(=O)CCCN(C)CC` [DLin-M-C3-MEA], in data set [1] (setting [2]), the pKa came out at 6.21. The same compound displayed an ED50 with Factor VII of 0.03 mg/kg.

In data set [1] (probe 2-(p-toluidino)-6-naphthalenesulfonic acid (TNS), 1 µM final, Lipid A pKa (±0.2), Lipid A by itself, formulation 40:10:40:10 (cationic lipid:DSPC:cholesterol:PEG-DMG)), `CCCCC/C=C\C/C=C\CCCCCCCCC(CCCCCCCC/C=C\C/C=C\CCCCC)ON=C(C)CCN(C)C` [ALNY-149] registered a pKa of 6.05. The “Lipid A ED50” value in the data set with Factor VII (Lipid A by itself, formulation 40:10:40:10) is listed as 0.050 mg/kg.

In data set [1] (setting [3]), `CCCCC/C=C\C/C=C\CCCCCCCCC1(CCCCCCCC/C=C\C/C=C\CCCCC)OCC(CN(C)C)O1` (centres unmarked) [DLin-K-DMA (Biofine)] registered a pKa of 5.94. The same compound had an ED50 with Factor VII of 0.25 mg/kg.

The compound `CCCCC/C=C\C/C=C\CCCCCCCCC1(CCCCCCCC/C=C\C/C=C\CCCCC)OCCC(CCN(C)C)O1` (centres unmarked) [DLin-K6A-C2-DMA] showed a pKa in data set [1] (setting [3]) of 6.73. The ED50 in the data set with Factor VII stood at 0.25 mg/kg.
